Common to all, as to assay type: functional
In test [1] the test system is Enterobacter cloacae. The test is described as follows: Antimicrobial activity against Enterobacter cloacae isolate 101 transconjugant expressing aac(6')-Ib-cr gene.
Test [2] has as its system Enterobacter cloacae. The test is described as follows: Antimicrobial activity against Enterobacter cloacae isolate 101 expressing aac(6')-Ib-cr gene.
Test [3] relates to Escherichia coli. The test can be described thus: Antimicrobial activity against Escherichia coli isolate 17 expressing aac(6')-Ib-cr gene.
In test [4] the test system is Klebsiella pneumoniae. The test is described as follows: Antimicrobial activity against Klebsiella pneumoniae isolate 132 expressing aac(6')-Ib-cr gene.
For test [5], the system named is Escherichia coli. The test can be described thus: Antimicrobial activity against azide-resistant Escherichia coli J53.
Test [6] has as its system Enterobacter cloacae. The test can be described thus: Antimicrobial activity against Enterobacter cloacae isolate 37 transconjugant expressing aac(6')-Ib-cr gene.
For test [7], the system named is Escherichia coli. The test can be described thus: Antimicrobial activity against Escherichia coli isolate 17 transconjugant expressing aac(6')-Ib-cr gene.
In test [8] the test system is Klebsiella pneumoniae. The test is described as follows: Antimicrobial activity against Klebsiella pneumoniae isolate 135 expressing aac(6')-Ib-cr gene.
Test [9] has as its system Enterobacter cloacae. The test is described as follows: Antimicrobial activity against Enterobacter cloacae isolate 153 transconjugant expressing aac(6')-Ib-cr gene.
In test [10] the test system is Klebsiella pneumoniae. The test is described as follows: Antimicrobial activity against Klebsiella pneumoniae isolate 202 expressing aac(6')-Ib-cr gene.
For test [11], the system named is Klebsiella pneumoniae. The test can be described thus: Antimicrobial activity against Klebsiella pneumoniae isolate 135 transconjugant expressing aac(6')-Ib-cr gene.
Test [12] relates to Enterobacter cloacae. The test is described as follows: Antimicrobial activity against Enterobacter cloacae isolate 153 expressing aac(6')-Ib-cr gene.
Test [13] concerns Klebsiella pneumoniae. The test is described as follows: Antimicrobial activity against Klebsiella pneumoniae isolate 202 transconjugant expressing aac(6')-Ib-cr gene.
The test system of test [14] is Enterobacter cloacae. The test can be described thus: Antimicrobial activity against Enterobacter cloacae isolate 37 expressing aac(6')-Ib-cr gene.
Test [15] has as its system Klebsiella pneumoniae. The test can be described thus: Antimicrobial activity against Klebsiella pneumoniae isolate 132 transconjugant expressing aac(6')-Ib-cr gene.
The test system of test [16] is Escherichia coli. The test is described as follows: Antimicrobial activity against Escherichia coli isolate 48 expressing aac(6')-Ib-cr gene.
Test [17] relates to Escherichia coli. The test is described as follows: Antimicrobial activity against Escherichia coli isolate 48 transconjugant expressing aac(6')-Ib-cr gene.
Test [18] concerns Escherichia coli. The test is described as follows: Ratio of MIC for Escherichia coli isolate 17 transconjugant to MIC for azide-resistant Escherichia coli […].
The subject of test [19] is Escherichia coli. The test is described as follows: Ratio of MIC for Escherichia coli isolate 48 transconjugant to MIC for azide-resistant Escherichia coli […].

This note sets out measurements from ChEMBL document CHEMBL1649439, “Prevalence of aac(6')-Ib-cr encoding a ciprofloxacin-modifying enzyme among Enterobacteriaceae blood isolates in Korea” (2009).

In brackets after ≈: the same amount, converted by molar mass.

As usually defined, the MIC is the smallest concentration in the dilution series that meets the test's criterion for growth inhibition.

On to `CO/N=C(\C(=O)N[C@@H]1C(=O)N2C(C(=O)O)=C(COC(C)=O)CS[C@H]12)c1csc(N)n1` [CEFOTAXIME], for which the MIC in test [1] is 32 µg/mL (≈ 70.3 µM); in [2], 256 µg/mL (≈ 562 µM); in [3], 256 µg/mL (≈ 562 µM); in [4], more than 256 µg/mL; in [5], 0.06 µg/mL (≈ 0.132 µM); in test [6], 64 µg/mL (≈ 141 µM). The MIC in test [7] is 256 µg/mL (≈ 562 µM); in test [8], 256 µg/mL (≈ 562 µM); in test [9], 32 µg/mL (≈ 70.3 µM); in test [10], more than 256 µg/mL; in test [11] it was 256 µg/mL (≈ 562 µM); in [12], 256 µg/mL (≈ 562 µM). For the same compound, the MIC was 16 µg/mL (≈ 35.1 µM) in test [13]; 128 µg/mL (≈ 281 µM) in [14]; more than 256 µg/mL in [15]; more than 256 µg/mL in test [16]; more than 256 µg/mL in test [17].
For the compound `CC(C)(O/N=C(\C(=O)N[C@@H]1C(=O)N2C(C(=O)[O-])=C(C[n+]3ccccc3)CS[C@H]12)c1csc(N)n1)C(=O)O` [CEFTAZIDIME], the MIC in test [1] was 2 µg/mL (≈ 3.66 µM); in [2], more than 32 µg/mL; in test [3], 32 µg/mL (≈ 58.5 µM); in [4], 32 µg/mL (≈ 58.5 µM); in test [5], 0.25 µg/mL (≈ 0.457 µM); in test [6] it was 2 µg/mL (≈ 3.66 µM). Moreover, the MIC in [7] was 16 µg/mL (≈ 29.3 µM); in test [8], more than 32 µg/mL; in test [9], 1 µg/mL (≈ 1.83 µM); in test [10], more than 32 µg/mL; in [11], more than 32 µg/mL; in test [12], more than 32 µg/mL. Further, the MIC in test [13] was 1 µg/mL (≈ 1.83 µM); in [14] it was 8 µg/mL (≈ 14.6 µM); in [15], 16 µg/mL (≈ 29.3 µM); in [16], more than 32 µg/mL; in test [17] it was more than 32 µg/mL.
For `O=C(O)c1cn(C2CC2)c2cc(N3CCNCC3)c(F)cc2c1=O` [CIPROFLOXACIN], the MIC in test [3] was more than 16 µg/mL; in test [4], 0.125 µg/mL (≈ 0.377 µM); in [8] it was more than 16 µg/mL; in test [10], more than 16 µg/mL; in test [11], 1 µg/mL (≈ 3.02 µM); in test [13], 0.03 µg/mL (≈ 0.0905 µM). Besides, the MIC is 0.03 µg/mL (≈ 0.0905 µM) in test [15] and more than 16 µg/mL in [16].
Take `COc1c(N2C[C@@H]3CCCN[C@@H]3C2)c(F)cc2c(=O)c(C(=O)O)cn(C3CC3)c12` [MOXIFLOXACIN]: the MIC in test [3] was more than 16 µg/mL; in [4], 0.125 µg/mL (≈ 0.311 µM); in test [8] it was more than 16 µg/mL; in test [10] it was 16 µg/mL (≈ 39.9 µM); in test [11] it was 1 µg/mL (≈ 2.49 µM); in [13], 0.06 µg/mL (≈ 0.149 µM). In addition, it took 0.06 µg/mL (≈ 0.149 µM) to inhibit growth in test [15] (MIC).
For `CCn1cc(C(=O)O)c(=O)c2ccc(C)nc21` [NALIDIXIC ACID], the MIC in test [1] was 8 µg/mL (≈ 34.4 µM); in test [2], more than 256 µg/mL; in test [3], more than 256 µg/mL; in [4] it was 8 µg/mL (≈ 34.4 µM); in test [5] it was 8 µg/mL (≈ 34.4 µM); in test [6], 8 µg/mL (≈ 34.4 µM). Further, the MIC in [7] was 8 µg/mL (≈ 34.4 µM); in test [8], more than 256 µg/mL; in test [9], 8 µg/mL (≈ 34.4 µM); in [10], more than 256 µg/mL; in [11] it was 32 µg/mL (≈ 138 µM); in test [12], more than 256 µg/mL. For the same compound, the MIC in test [13] is 8 µg/mL (≈ 34.4 µM); in test [14], more than 256 µg/mL; in test [15], 8 µg/mL (≈ 34.4 µM); in [16] it was more than 256 µg/mL; in test [17], 8 µg/mL (≈ 34.4 µM).
With `CCn1cc(C(=O)O)c(=O)c2cc(F)c(N3CCNCC3)cc21` [NORFLOXACIN], the MIC in [1] is 0.25 µg/mL (≈ 0.783 µM); in test [2], more than 16 µg/mL; in test [3] it was more than 16 µg/mL; in [4], 0.5 µg/mL (≈ 1.57 µM); in test [5], 0.06 µg/mL (≈ 0.188 µM); in test [6], 0.25 µg/mL (≈ 0.783 µM). In addition, the MIC in test [7] was 0.25 µg/mL (≈ 0.783 µM); in test [8], more than 16 µg/mL; in test [9] it was 0.25 µg/mL (≈ 0.783 µM); in test [10] it was more than 16 µg/mL; in test [11], 8 µg/mL (≈ 25.1 µM); in [12], more than 16 µg/mL. Moreover, the MIC in test [13] is 0.125 µg/mL (≈ 0.391 µM); in test [14], more than 16 µg/mL; in test [15], 0.125 µg/mL (≈ 0.391 µM); in test [16] it was more than 16 µg/mL; in test [17], 0.25 µg/mL (≈ 0.783 µM). The “fold change (FC)” value in test [18] and in test [19] was 2 throughout.
Turning to `NC[C@H]1O[C@H](O[C@H]2[C@H](O)[C@@H](O[C@H]3O[C@H](CO)[C@@H](O)[C@H](N)[C@H]3O)[C@H](N)C[C@@H]2N)[C@H](N)C[C@@H]1O` [TOBRAMYCIN], the MIC in test [1] is 2 µg/mL (≈ 4.28 µM); in test [2], more than 16 µg/mL; in test [3] it was more than 16 µg/mL; in test [4] it was more than 16 µg/mL; in test [5] it was 0.25 µg/mL (≈ 0.535 µM); in test [6], more than 16 µg/mL. The MIC is 16 µg/mL (≈ 34.2 µM) in test [7]; more than 16 µg/mL in test [8]; more than 16 µg/mL in test [9]; more than 16 µg/mL in [10]; more than 16 µg/mL in [11]; more than 16 µg/mL in test [12]. Besides, the MIC in test [13] was more than 16 µg/mL; in test [14], more than 16 µg/mL; in test [15], 16 µg/mL (≈ 34.2 µM); in [16], 16 µg/mL (≈ 34.2 µM); in test [17] it was 8 µg/mL (≈ 17.1 µM).
For GENTAMICIN, the MIC in test [1] was 0.25 µg/mL; in test [2], more than 32 µg/mL; in test [3], more than 32 µg/mL; in test [4], more than 32 µg/mL; in [5], 0.25 µg/mL; in test [6] it was more than 32 µg/mL. Further, the MIC was 32 µg/mL in test [7]; more than 32 µg/mL in test [8]; more than 32 µg/mL in test [9]; more than 32 µg/mL in test [10]; more than 32 µg/mL in [11]; more than 32 µg/mL in [12]. The MIC is more than 32 µg/mL in [13]; more than 32 µg/mL in test [14]; 32 µg/mL in [15]; 0.25 µg/mL in test [16]; 0.25 µg/mL in test [17].
